PubChem BioAssay (NCI)
Where “and” joins values, the source holds several entries; their conditions need not be identical. Identical values can stand only once.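 Cells were grown in 96-well plates and exposed to each compound for 48 hours at five concentrations; endpoints were interpolated linearly between bracketing concentrations, or set to the highest concentration if not reached. The concentration for 50% growth inhibition is given as GI50. The concentration for full growth arrest is given as TGI.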

What was measured:
Test in all cases: NCI-60 cell line screen, 48 h
SF-295 CNS = test system: SF-295 CNS
NCI/ADR-RES ovarian = test system: NCI/ADR-RES ovarian
NCI-H23 lung = test system: NCI-H23 lung
SR leukemia = test system: SR leukemia
MOLT-4 leukemia = test system: MOLT-4 leukemia
COLO 205 colon = test system: COLO 205 colon
DU-145 prostate = test system: DU-145 prostate
M14 melanoma = test system: M14 melanoma
LOX IMVI melanoma = test system: LOX IMVI melanoma
MALME-3M melanoma = test system: MALME-3M melanoma

| Compound | GI50 (SF-295 CNS) [µM] | TGI (SF-295 CNS) | GI50 (NCI/ADR-RES ovarian) [µM] | TGI (NCI/ADR-RES ovarian) | GI50 (NCI-H23 lung) [µM] | TGI (NCI-H23 lung) | GI50 (SR leukemia) [µM] | TGI (SR leukemia) [µM] | GI50 (MOLT-4 leukemia) [µM] | TGI (MOLT-4 leukemia) | GI50 (COLO 205 colon) [µM] | TGI (COLO 205 colon) | GI50 (DU-145 prostate) [µM] | TGI (DU-145 prostate) [µM] | GI50 (M14 melanoma) [µM] | TGI (M14 melanoma) [µM] | GI50 (LOX IMVI melanoma) [µM] | TGI (LOX IMVI melanoma) | GI50 (MALME-3M melanoma) [µM] | TGI (MALME-3M melanoma) |
| --- | --- | --- | --- | --- | --- | --- | --- | --- | --- | --- | --- | --- | --- | --- | --- | --- | --- | --- | --- | --- |
| COc1ccc(-c2cc3nccn3c(Nc3ncccc3C(N)=O)n2)cc1OC | > 100 | > 100 µM | > 26.6 | > 100 µM | > 39.2 | > 100 µM | 0.275 | 21.4 | 4.14 | > 100 µM | 1.21 | > 100 µM | 2 | > 100 | > 65.7 | > 100 | 0.807 | > 100 µM | > 100 | > 100 µM |
| O=C1C(Nc2cccc(O)c2)=C(Sc2ccc(Cl)cc2)C(=O)N1Cc1ccccc1 | 7.5 | 24.9 µM | 7.21 | 36.1 µM | 6.77 | 37.5 µM | 3.41 | 14.1 | 3.05 | 28.3 µM | 28.2 | > 100 µM | 12 | 33.3 | 6.94 | 38.5 | 8.7 | 29.1 µM | 3.81 | 17.8 µM |
| CCCCc1oc2ccccc2c1C(=O)c1cc(I)c(OCCN(CC)CC)c(I)c1 | 1.88 | 3.81 µM and 8.35 µM | 1.94 | 4.54 µM and 16.5 µM | 2.67 | 8.87 µM and 18 µM | 1.68 | 4.24 | 1.92 | 4.27 µM and 7.8 µM | 1.89 | 3.4 µM and 7.84 µM | 5.28 | 17.8 | 2.18 | 4.78 | 1.49 | 2.82 µM and 7.86 µM | 1.86 | 3.71 µM and 8.57 µM |
| NCCCn1c2c(c3ccc([N+](=O)[O-])cc3c1=O)C(=O)c1cc(Cl)ccc1-2 | < 0.01 | 1.37 µM | < 0.01 | 0.292 µM | < 0.01 | 0.055 µM | < 0.01 | 0.0325 | < 0.01 | < 0.0114 µM | < 0.01 | 0.313 µM | < 0.01 | 0.115 | < 0.01 | 0.0318 | < 0.01 | 0.117 µM | < 0.01 | 0.195 µM |
| c1ccc([P+](CCC[P+](c2ccccc2)(c2ccccc2)c2ccccc2)(c2ccccc2)c2ccccc2)cc1 | 16.2 | > 100 µM | > 100 | > 100 µM | 18.8 | > 100 µM | 4.82 | > 100 | 35.9 | > 100 µM | 2.89 | 96.6 µM and 10.5 µM | 19.9 | > 100 | 27.6 | > 100 | – | > 100 µM | – | > 100 µM |
| COc1ccc(Cn2cc3c(c2-c2ccccc2)CCc2cncnc2-3)cc1 | 4.02 | 17.8 µM | 3.99 | 19.8 µM | 10.6 | 39.3 µM | 1.46 | 6.7 | 2.81 | 11.1 µM | 4.44 | 17.2 µM | 14.2 | 33.7 | 4.2 | 18.2 | 6.81 | 19.9 µM | 3.18 | 12.8 µM |
| C=CC1=C(C)C(Cc2[nH]c(/C=c3\[nH]/c(=C/C4=NC(=O)C(C)/C4=C\C)c(C)c3CCC(=O)O)c(CCC(=O)OC)c2C)NC1=O (stereo not given) | 37.8 | > 100 µM | 48.8 | > 100 µM | 28.3 | 53.6 µM | 20 | 46 | 34.1 | > 100 µM | 20.2 | 36.3 µM | 62.6 | > 100 | 28.3 | 89.5 | 18.6 | 37.4 µM | 31.8 | 69.8 µM |
| COc1cc(/C=N/O)nc(-c2ccccn2)c1 | – | > 35.5 µM | 0.294 | 10.9 µM | – | > 100 µM | 0.284 | 22.2 | 0.281 | 25.1 µM | 0.305 | > 100 µM | 0.4 | > 75.3 | – | 4.98 | 0.271 | 10.8 µM | 0.431 | 12.2 µM |
| c1cc(-c2cnn3nc(N4CCOCC4)ccc23)nc(NC2CC2)n1 | 8.72 | > 25 µM | 8.25 | > 25 µM | 7.19 | > 25 µM | 6.48 | 20 | 13.7 | > 25 µM | 8.06 | > 23.5 µM | 8.66 | > 25 | 9.04 | > 25 | 6.23 | > 25 µM | 12.1 | > 25 µM |
